Common to all, as to experiment: NCI tumour cell line growth inhibition, 48 h
Assay [1] concerns SK-MEL-2 melanoma.
Assay [2] concerns IGROV1 ovarian.
For assay [3], the system named is SNB-75 CNS.
The subject of assay [4] is COLO 205 colon.
The test system of assay [5] is SF-295 CNS.
The test system of assay [6] is TK-10 renal.
Assay [7] concerns A498 renal.
The test system of assay [8] is UACC-257 melanoma.
The subject of assay [9] is CCRF-CEM leukemia.
Assay [10] has as its system MCF7 breast.

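Step 1: Grow cells in 96-well plates. Step 2: Expose to compound for 48 hours at 5 concentrations. Step 3: Interpolate endpoints linearly; if unreached, use highest concentration. GI50 marks 50% less growth. TGI is the concentration that stops growth completely.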

Regarding `CC(C)=NNC(=S)NC12CC3CC(CC(C3)C1)C2`, the TGI in [1], in [2], in assay [3], in [4], in assay [5] and in assay [6] was more than 100 µM in each case. In addition, the TGI in assay [7], in assay [8] and in assay [9] was more than 100 µM throughout.
On to `c1ccc2c(CNCCCCCCCCNCc3cccc4ccccc34)cccc2c1`, for which the TGI in assay [1] stood at 3.03 µM; in [2], 16.2 µM; in assay [3] it was 3.35 µM; in assay [4], 3.43 µM; in assay [5], 3.32 µM; in [6], 5.53 µM. Moreover, the TGI in assay [7] worked out at 28.4 µM; in assay [8] it was 3.29 µM; in [9], 5.21 µM.
Take `COC(=O)C1[C@H](c2ccc3c(c2)OCO3)OC(=O)[C@]1(C(=O)OC)C(=O)c1ccc(OC)c(OC)c1` (some centres not stated): the TGI is 79.9 µM in assay [1]; more than 100 µM in assay [2]; more than 100 µM in [3]; more than 100 µM in assay [4]; more than 100 µM in assay [5]; more than 100 µM in [6]. The TGI in assay [7], in assay [8] and in assay [9] was more than 100 µM in each case.
As for `O=c1cccc2n1CC1CNC[C@H]2C1`, the TGI in assay [1], in assay [10], in assay [2], in assay [3], in assay [4] and in assay [5] was more than 100 µM in each case. Further, the TGI in assay [6], in [8] and in assay [9] was more than 100 µM in each case.
With `Cn1c(-c2c(N)n(Cc3ccc(F)cc3)c3nc(C#N)c(C#N)nc23)nc2ccccc21`, the GI50 was 3.62 µM in [1]; 2.19 µM in assay [10]; 1.52 µM in assay [4]; 7.68 µM in assay [5]; 1.09 µM in [6]; 4.51 µM in assay [8]. Further, the TGI is 34.9 µM in assay [1]; more than 50 µM in [10]; 6.26 µM in [4]; 32.5 µM in assay [5]; 3.77 µM in [6]; more than 50 µM in [8].
Take `C=C1C(=O)O[C@H]2[C@H]1CC/C(CNC(=O)/C=C/c1ccccc1F)=C\CC[C@@]1(C)O[C@@H]21`: the GI50 was 1.7 µM in assay [1]; 1.69 µM in assay [2]; 2.18 µM in assay [3]; 1.4 µM in assay [4]; 7.16 µM in [5]; 1.66 µM in assay [6]. The GI50 was 2.6 µM in assay [7], 1.77 µM in assay [8] and 0.416 µM in assay [9]. Also, the TGI came out at 3.52 µM in [1]; 4.65 µM in assay [2]; 8.29 µM in [3]; 2.96 µM in assay [4]; 20.9 µM in [5]; 3.25 µM in assay [6]. In addition, the TGI in assay [7] turned out to be 7.49 µM; in assay [8], 3.59 µM; in assay [9] it was 2.92 µM.
Take `COc1cc(O)c2c(c1)C(=O)C1=C(C2=O)C(O)C[C@@](C)(O)C1` (some centres not stated): the TGI came to 5.05 µM in [1]; 3.71 µM in assay [2]; 0.844 µM in assay [4]; 7.32 µM in [5]; 6.14 µM in assay [6]; 3.29 µM in [7]. For the same molecule, the TGI in assay [8] is 1.24 µM; in assay [9], more than 24.9 µM.
For `COC12OCCN(C)C1=CC(=O)C1(C)N=NCC12` (configuration not stated), the TGI in [2], in assay [3], in assay [4], in assay [5], in [6] and in [7] was more than 100 µM each time. Further, the TGI in [8] and in assay [9] was more than 100 µM in each case.
Take `CCCCCCCCCCOC(=O)NCCC`: the TGI in [1] is 41 µM; in assay [2], more than 100 µM; in assay [3] it was more than 100 µM; in [4], more than 100 µM; in assay [5], more than 100 µM; in assay [6], more than 100 µM. Also, the TGI in assay [7] was more than 100 µM; in [8] it was 92.8 µM; in assay [9] it was 48.4 µM.
Consider `O=C(CSSCC(=O)Nc1ccc(Br)cc1)Nc1ccc(Br)cc1`, for which the TGI in assay [2] worked out at 39 µM; in assay [3] it was 40.1 µM; in [4], 74 µM; in assay [5], 28 µM; in assay [6], 30.5 µM; in assay [7] it was 34.1 µM. In addition, in assay [8], the TGI was found to be 37.6 µM.
As for `CC[PH+](CC)CC.CC[PH+](CC)CC.[Au]`, the GI50 is 2.73 µM in [1]; 14.5 µM in assay [2]; 15 µM in [3]; 2.52 µM in [4]; 13.5 µM in [5]; 19.9 µM in [6]. The GI50 is 11.4 µM in assay [8] and 2.04 µM in assay [9]. In addition, the TGI in assay [1] was determined as 15.8 µM; in [2], 34.3 µM; in assay [3] it was 29 µM; in [4], 7.32 µM; in assay [5] it was 26.9 µM; in [6] it was 35.7 µM. The values for the TGI in assay [8] and in assay [9] were 24.4 µM and 11.9 µM, respectively.
On to `CN(C)CCNC(=O)c1ccc2oc3cc4ccccc4c(=O)n3c2c1`, for which the GI50 in assay [1] was 21.4 µM; in assay [10] it was 64.1 µM; in [2], 23.1 µM; in assay [3] it was 22.9 µM; in assay [4], 32.1 µM; in assay [5], 28 µM. The GI50 in assay [6] was 21.6 µM; in assay [8], 23.9 µM. In addition, the TGI was 63.5 µM in [1]; more than 100 µM in [10]; more than 100 µM in assay [2]; 61.2 µM in assay [3]; more than 100 µM in [4]; more than 100 µM in [5]. For the same molecule, the values for the TGI in assay [6] and in assay [8] were 72.3 µM and 58 µM, respectively.
In the case of `N#CCc1nnc(N)o1`, the TGI in assay [1], in [2], in assay [3], in [5], in [6] and in assay [8] was more than 100 µM each time. The molecule further registered a TGI in assay [9] of more than 100 µM.

These data come from PubChem BioAssay (NCI).
